Values quoted from earlier work in Sander's compilation of Henry's law constants (doi:10.1002/etc.5620190905).

Experiment: Henry solubility constant Hcp at 298.15 K (mol/(m3 Pa))
Conditions: reference: Armbrust (2000); cited value

Going from `N#Cc1c(Cl)c(Cl)c(Cl)c(C#N)c1Cl` [2,4,5,6-tetrachloro-1,3-dicyanobenzene] to `O=C(O)COc1nc(Cl)c(Cl)cc1Cl` [[(3,5,6-trichloro-2-pyridinyl)oxy]-acetic acid], the “Henry solubility constant Hcp” value rises from 45 to 12000.

First: O=C(O)COc1ccc(Cl)cc1Cl [(2,4-dichlorophenoxy)-ethanoic acid]
Second: COc1c(Cl)ccc(Cl)c1C(=O)O [dicamba]
The “Henry solubility constant Hcp” value of the first is higher: 5.5e+06 for the first, 22000 for the second.

First: CCN(CC)C(=O)SCc1ccc(Cl)cc1 [S-(4-chlorobenzyl) diethylthiocarbamate]
Second: O=[N+]([O-])/N=C1\NCCN1Cc1ccc(Cl)nc1 [imidacloprid]
The “Henry solubility constant Hcp” value of the first is lower: 37 for the first, 4.9e+09 for the second.

First: COC(=O)c1ccccc1CS(=O)(=O)NC(=O)Nc1nc(OC)cc(OC)n1 [bensulfuron methyl]
Second: COC(=O)c1ccccc1S(=O)(=O)NC(=O)Nc1nc(C)cc(C)n1 [sulfometuron methyl]
The “Henry solubility constant Hcp” value of the first is lower: 7e+10 for the first, 8.2e+12 for the second.

First: CCOP(=S)(OCC)Oc1nc(Cl)c(Cl)cc1Cl [chlorpyrifos]
Second: CC(C)Oc1cc(-n2nc(C(C)(C)C)oc2=O)c(Cl)cc1Cl [oxadiazon]
The “Henry solubility constant Hcp” value of the first is lower: 1.4 for the first, 140 for the second.

For `COc1nc(C)nc(NC(=O)NS(=O)(=O)c2ccccc2Cl)n1` [chlorsulfuron], the “Henry solubility constant Hcp” value is given as 150000.
